Like-named read-outs stand apart in the source and are kept apart here.
Assays:
P. aeruginosa = experiment: MIC of menadione by broth microdilution, with or without aBL; type: cell-based, Pseudomonas aeruginosa PA01
Procedure: The MICs of menadione in different bacterial strains were determined by a standard broth microdilution assay according to the Clinical and Laboratory Standards Institute. Briefly, menadione was prepared at 100 mg/mL in Tween 80/DMSO (1:1) as a stock solution. The stock solution was diluted to 2048 μg/mL in BHI and then serial dilutions were performed to 1024-0.015 μg/mL in a 96-well plate. Then, a 10 μL stationary growth-phase culture of 10^8 CFU/mL bacteria in BHI broth was added to the 96-well plate containing the serial dilutions of menadione. The medium containing a similar amount of Tween 80/DMSO (1:1) served as a control. The microplates were incubated at 37° C. for 24 hours and the lowest concentration of the compound capable of completely inhibiting bacterial growth was referred to as the MIC.
However, we investigated the effects of aBL (50 mW/cm^2) in potentiating the antibacterial activities of menadione in the three strains of bacteria. […] The highest fluence that we investigated was 125 J/cm^2, when we irradiated the bacteria for 42 minutes.

MRSA biofilm = experiment: Photoinactivation of 48-hour in vitro biofilms by adjuvant/antibiotic + antimicrobial blue light; type: cell-based, methicillin-resistant Staphylococcus aureus; conditions: for Bacterial Log10 CFU/mL Reduction after menadione + aBL: MRSA USA 300 biofilm 48 h
Procedure: The bacterial suspension was grown in a shaking incubator overnight in BHI broth. Cells were collected by centrifugation at 4,000 rpm for 5 minutes and suspended in PBS at a density of 10^6 CFU/mL. Then, the biofilms were grown for 48 hours (unless otherwise specified) in 96-well microtiter plates as described previously [Ref. 27], with a renewal of the media every 24 hours. Following the 48-hour biofilm growth, fresh 200 μL of PBS with or without menadione in different concentrations were added to the wells and the biofilms were incubated in the dark at 25° C. for 1 hour: 0, 0.5, 1, and 2 μg/mL for MRSA USA300, AF0001, IQ0064; 0, 1, 10, 30 and 50 μg/mL for P. aeruginosa PA01; and 0, 100, and 150 μg/mL for E. coli ATCC 25922. After that, the control and the menadione-treated biofilms were maintained without irradiation (“menadione/dark”). Simultaneously, the aBL was delivered to the other biofilm groups testing different power densities (50, 30, 15, and 10 mW/cm^2) while keeping the same radiant exposure of 250 J/cm^2. After the light exposure, the biofilms were carefully washed two times with PBS and 200 μL of PBS was added to each well. Then, the bacterial biofilms in each well were harvested by scratching with a sterile pipette tip and three wells of each group were pooled together in a 1.5 mL microcentrifuge tube. The total volume obtained, 600 μL (3 wells), was sonicated using a Branson 2510 Water Bath Sonicator (Marshall Scientific, LLC) for 5 minutes and the CFU was determined by 10-fold serial dilutions in PBS on BHI agar plates. CFU was counted after overnight incubation at 37° C. Experiments were performed in triplicate.
A bacterial suspension was grown in a shaking incubator overnight in BHI broth. Cells were collected by centrifugation at 4,000 rpm for 5 minutes and suspended in PBS at a density of 10^6 CFU/mL. Then, the biofilms were grown for 48 hours in 96-well microtiter plates with a renewal of the media every 24 hours. Following the 48-hour biofilm growth, fresh 200 μL of PBS with the tetracyclines minocycline, doxycycline, and demeclocycline in different concentrations were added to the wells and the biofilms were incubated in the dark at 25° C. for 1 hour: 0, 0.25, 0.5, and 1 μg/mL for minocycline; 0, 0.5, 1, and 2 μg/mL for doxycycline; and 0, 0.5, 1, and 2 for demeclocycline. After that, the control and the tetracycline-treated biofilms were maintained without irradiation (“menadione/dark”). Simultaneously, the aBL (405 nm) was delivered to the other biofilm groups testing different power densities (50, 30 mW/cm^2) while keeping the radiant exposures of 50-250 J/cm^2. After the light exposure, the biofilms were carefully washed two times with PBS and 200 μL of PBS was added to each well. Then, the bacterial biofilms in each well were harvested by scratching with a sterile pipette tip and three wells of each group were pooled together in a 1.5 mL microcentrifuge tube. The total volume obtained, 600 μL (3 wells), was sonicated using a Branson 2510 Water Bath Sonicator (Marshall Scientific, LLC) for 5 minutes and the CFU/mL was determined by 10-fold serial dilutions in PBS on BHI agar plates. CFU was counted after overnight incubation at 37° C.

[1] = ROS probes (DCF-DA, SOSG, HPF) in the absence of bacteria
Procedure: 1.2.9.1 General ROS measured by […] (DCFH-DA) assay: DCF-DA was purchased from Thermofisher. […] The production of ROS by menadione when combined with blue light was measured in the presence and absence of bacteria. The bacteria (MRSA) was grown in BHI broth medium with shaking overnight. Cells were collected by centrifugation at 4,000 rpm for 5 minutes and resuspended in PBS in the stationary growth phase culture of 1×10^8 CFU/mL. The microbial suspension was transferred to a 35×12-mm dish, mixed with 10 μg/mL of menadione, and stained with 10 μM DCFH-DA solution per the manufacturer's instruction. The solutions (with and without bacteria) were irradiated with the blue light at 50 mW/cm^2 and the samples were collected every 15 minutes to be analyzed by Microplate Spectrofluorometer (SPECTRAmax®, Molecular Devices, USA) at λex=495 nm and λem=525 nm. The control and the menadione/dark groups were generated under the same conditions without irradiation.
To do so, the production of ROS by menadione combined with blue light was measured by different ROS probes, DCF-DA, SOSG and HPF, in the presence and absence of MRSA. […] Oxidation of these probes can be detected by monitoring the increasing of fluorescence signals. […]

CC1=CC(=O)c2ccccc2C1=O [menadione, 2-methyl-1,4-naphthoquinone]
MIC (P. aeruginosa; Pseudomonas aeruginosa, light or radiation study, 5 min, aBL 15.62 J/cm^2 (5 mins.), 50 mW/cm^2, read-out: MIC): 64 µg/mL | MIC (P. aeruginosa; Pseudomonas aeruginosa, light or radiation study, 0.175 h, aBL 31.25 J/cm^2 (10.5 mins.), 50 mW/cm^2, read-out: MIC): 8 µg/mL | MIC (P. aeruginosa; Pseudomonas aeruginosa, light or radiation study, 0 J/cm^2 (Dark), read-out: MIC): 1020 µg/mL | MIC (P. aeruginosa; aBL 62.5 J/cm^2 (21 mins.), 50 mW/cm^2): complete eradication | MIC (P. aeruginosa; aBL 125 J/cm^2 (42 mins.), 50 mW/cm^2): completely eradicated | biofilm reduction by menadione without irradiation (MRSA biofilm; 48 h biofilm, dark): < 1 log killing | biofilm killed by menadione plus aBL (MRSA biofilm; 48 h biofilm, 1 μg/mL menadione + aBL 250 J/cm^2 (50 mW/cm^2)): 4.85 log10 CFU/mL | biofilm killed by menadione plus aBL (MRSA biofilm; 48 h biofilm, 1 μg/mL menadione + aBL 250 J/cm^2 at 15 mW/cm^2): 3.01 log10 CFU/mL | Bacterial Log10 CFU/mL Reduction after menadione + aBL (MRSA biofilm; 10 mW/cm^2, 250 J/cm^2, 6 hours 56 minutes): −1.91 Log10 CFU/mL | Bacterial Log10 CFU/mL Reduction after menadione + aBL (MRSA biofilm; 15 mW/cm^2, 250 J/cm^2, 4 hours 37 minutes): −3.01 Log10 CFU/mL | Bacterial Log10 CFU/mL Reduction after menadione + aBL (MRSA biofilm; 30 mW/cm^2, 250 J/cm^2, 2 hours 18 minutes): −2.28 Log10 CFU/mL | Bacterial Log10 CFU/mL Reduction after menadione + aBL (MRSA biofilm; 50 mW/cm^2, 250 J/cm^2, 1 hours 23 minutes): −4.85 Log10 CFU/mL | Bacterial Log10 CFU/mL Reduction after menadione + aBL (MRSA biofilm; power density 0 mW/cm^2): 0 Log10 CFU/mL | fluorescence signal of ROS probes, menadione exposed to blue light ([1]; 405 nm, DCF-DA, SOSG, HPF): higher fluorescence signal | fluorescence signal of ROS probes, menadione dark group ([1]; no irradiation): negligible

Source: patent US20240416143A1, “PHOTONIC ANTIMICROBIAL WOUND SURFACE DRESSING” (The General Hospital Corporation, priority 2021, published 2024)
